Test results: patent US10047386B2, “Biomarker for abdominal aortic aneurysm” (THE REGENTS OF THE UNIVERSITY OF CALIFORNIA, priority 2011, dated 2018)
Several values for one entry are separate records, joined by “and”; a condition that tells them apart may be missing. Equal values may be shown once. Entries after “also recorded” stand apart in the source; their conditions may differ.

How the values were obtained:
Type in all cases: in vivo
hph-1 mice [1] = experiment: AAA formation in Ang II-infused hph-1 mice; conditions: for AAA total morbidity / incidence rate: Ang II 0.7 mg/kg per day for 14 days, FA 15 mg/kg per day oral where given
Protocol: (§1) The hph-1 mice (originally in CBA background)^19 were backcrossed with C57BL6 mice for >10 generations and genotyped based on a protocol by Khoo et al.^21 Only homozygote hph-1 mice in C57BL6 background were used for experiments. WT and hph-1 male mice at 24 weeks of age were infused with Ang II (0.7 mg/kg per day) using subcutaneously implanted osmotic pumps (Durect Corp). During the 14-day infusion, blood pressure was monitored by telemetry method. Wireless blood pressure probes were implanted into the animals 10 days before the implantation of the osmotic pumps. The catheter of the blood pressure probe was inserted into the left carotid artery, whereas the body of the probe was inserted into the right flank.
(§2) WT and hph-1 mice were started on continuous oral administration of FA (15 mg/kg per day) or tail vein transfection of DHFR expression vector (pcDNA3.1-DHFR)5 in lipid-based reagent from Altogen Biosystems every other day for 14 days, starting 2 days before Ang II infusion. The mice were monitored twice per day during the infusion period of 2 weeks, and aortas were harvested for assessment of AAA formation, endothelial DHFR expression, and eNOS uncoupling activity by day 14. Animals that died suddenly during the infusion period of 14 days were inspected for aneurysm immediately and aortas were freshly harvested for experiments.

apoE null mice = experiment: AAA formation in Ang II-infused apoE null mice; conditions: for number of mice with AAA / number of mice with No AAA: Ang II 4 weeks, FA 15 mg/kg/day where given
Protocol: Animals were fed normal chow or customized FA chew (15 mg/kg/day) two days prior to Ang II infusion and throughout the study period of 4 weeks. Of note, 24 out of 26 Ang II infused apoE null mice (92.3%) on normal chow developed AAA (FIG. 11). […] L-NAME sensitive superoxide production, which reflects eNOS uncoupling activity, was also measured.
For this study, apoE null male animals were infused with Ang II for 4 weeks, which has been shown in literature to reliably produce AAA in 90-100% of the animals. One group of animals is fed food mixed with FA. AAA development is monitored using a noninvasive ultrasound technique during the infusion period. At the end of the four weeks, aortas from the animals were harvested and histology or biochemical assays were performed to assess for various markers of AAA and eNOS functional state.
Animals were either given regular chow, or food pellets made in house mixed with FA (15 mg/kg/day). Aorta are carefully dissected and cleaned of connective tissue from the animals after euthanasia. Blood samples (˜0.1 mL) are collected from each animal on a weekly basis and after euthanasia.
The development of AAA is monitored noninvasively via an ultrasound imaging system (Vevo 770, Visualsonics) during the Ang II-infusion period. The abdominal aortas were imaged transversely and identified via Doppler measurements for the presence of a major pulsatile flow. […] Aorta size is later measured offline from images captured. Two measurements per week after Ang II infusion, as well as two measurements before the Ang II infusion (for control) are made. AAA is defined as an enlargement of the abdominal aorta by at least 50%, and later confirmed at the experimental end point. The AAA incidence for this model was also assessed by direct inspection of abdominal aorta at time of harvest, or post-mortem in those died of sudden rupture.

WT mice [2] = experiment: Mean blood pressure by intracarotid telemetry, WT mice
Protocol: as §1
(§3) Animals were given 1 week to recover from the surgery. After this period, blood pressure was measured for 3 days to obtain a baseline. The osmotic pumps were then implanted on day 10 after surgery. Measurements were made daily from 9:00 AM to 4:00 PM at a 250-Hz sampling rate. Average blood pressure was calculated daily as the average of the entire recording period. The use of animals and experimental procedures were approved by the institutional animal care and usage committee at the University of California Los Angeles. […]

hph-1 mice [3] = experiment: Mean blood pressure by intracarotid telemetry, hph-1 mice
Protocol: as §1, §3

aortic H4B [4] = experiment: HPLC determination of aortic H4B content, hph-1 mice; conditions: for aortic levels of H4B: hph-1 mice, Example 3, n=3 each (vehicle 1.87±0.25)
Protocol: (§4) Animals were given 1 week to recover from the surgery. After this period, blood pressure was measured for 3 days to obtain a baseline. The osmotic pumps were then implanted on day 10 after surgery. Measurements were made daily from 9:00 AM to 4:00 PM at a 250-Hz sampling rate. Average blood pressure was calculated daily as the average of the entire recording period. The use of animals and experimental procedures were approved by the institutional animal care and usage committee at the University of California Los Angeles. Electron spin resonance determination of aortic NO and superoxide production, high-performance liquid chromatography determination of aortic H4B content, and Western blot determination of endothelial DHFR expression were performed as published previously.^1,2,5
(§5) H4B levels are measured using a HPLC system as previously described. Briefly, aorta samples are lysed with trichloroacetic acid and DTT, subjected to acidic or alkalytic oxidation, and H4B and its oxidized species are detected with a fluorescent detector after separation in the HPLC system (Shimadzu).

aortic H4B [5] = experiment: HPLC determination of aortic H4B content, WT mice; conditions: Ang II-infused WT mice, FA 15 mg/kg per day
Protocol: as §4, §5

aortic H4B [6] = experiment: HPLC determination of aortic H4B, apoE null mice; conditions: n=6 (vehicle 4.86±0.32)
Protocol: as §5
(§6) Also investigated was whether FA supplementation as used above leads to improved H4B availability both in the circulation and in the vascular tissues. Ang II-infused apoE null or hph-1 mice are treated with diets supplemented with FA, and circulating and aortic H4B contents are determined using HPLC at different time points of 1, 2, 3 and 4 wks. […] It is established that it takes 3-4 weeks for AAA to develop in Ang II-infused apoE null mice, and at these time points, circulating and tissues H4B levels were indeed decreased, but restored by FA treatment (FIGS. 9-10).

plasma H4B [7] = experiment: HPLC determination of plasma H4B, apoE null mice; conditions: n=6 each (vehicle 3.31±0.13)
Protocol: as §5
(§7) Blood samples are collected from Ang II-infused apoE null and hph-1 animals. Approximately 0.1 mL of blood is collected from each animal from the tail vein on a weekly basis. HPLC is used to determine the concentration of H4B in the blood samples as outlined above.
as §6

plasma H4B [8] = experiment: HPLC determination of plasma H4B, hph-1 mice; conditions: n=3 each (vehicle 1.37±0.05)
Protocol: as §5, §7, §6

hph-1 mice [9] = experiment: Ultrasound detection of abdominal aorta size, hph-1 mice; conditions: Ang II infusion, day 0 values 0.37 (Ang II) and 0.39 (FA)
From the text: (§8) Animals were anesthetized with isoflurane and placed on a temperature-controlled table, which also measures ECG for heart rate. Isoflurane levels were adjusted throughout the experiment to maintain heart rate between 400 and 500 bpm while keeping the animal sufficiently anesthetized. Hair was removed from the abdomen using a hair removal cream, and preheated ultrasound transmission gel was applied onto the abdomen area. An ultrasound probe (Velvo 770, Visualsonics) was placed on the gel to visualize aorta transversely. The aorta was identified using Doppler measurement for the presence of pulsatile flow. […] Images were recorded and saved onto a PC computer for offline area analysis. Hematoxylin-eosin and Verhoeff-Van Gieson stainings were conducted following standard histological protocols.

endothelial DHFR = experiment: Western blot of endothelial DHFR expression in aortic preparations, hph-1 mice; conditions: Ang II infusion 14 days
Protocol: as §4
On harvest, whole aorta was cut open longitudinally and then digested with collagenase (0.6 mg/mL) at 37° C. for 20 minutes before gentle removal of endothelial cells with a cotton applicator. The supernatant containing endothelial cells was centrifuged and lysed for Western blot analysis.

hph-1 mice [10] = experiment: Aortic histology (H&E, VVG, macrophage staining), hph-1 mice; conditions: for infiltrating macrophages: Ang II-infused mice
From the text: as §8
(§9) Formalin-fixed and paraffin-embedded tissue were sectioned at 5 μm. Paraffin was removed by washing with xylene and then rehydrated with descending concentrations of ethanol. Antigen retrieval was performed by immersing the sections in an antigen retrieval buffer ([…] of citric acid, 0.01% Tween 20) at 98.5° C. for 20 minutes. Sections were washed in PBS plus 0.1% triton (PBS-T) and then blocked with 2% normal goat serum in PBS-T at room temperature for 3 hours. Sections were then incubated with primary antibody (Mac-3, BD Pharmingen, 2%, in PBS-T) overnight at 4° C. After washing with PBS-T for 1 hour, sections were incubated with secondary antibody (Alexa fluor 488, 2% in PBS-T) for 2 hours at room temperature in the dark. After washing with PBS-T for 1 hour, sections were dehydrated with ascending grades of ethanol and then xylene. Sections were mounted with Permount medium and pictures taken with a confocal microscope (Leica, SP1 inverted). MMP activity assays were performed as published previously.^22

MMP2 [11] = experiment: MMP activity zymography of aortas, MMP2, hph-1 mice
Protocol: as §9
(§10) An increase in MMP activity is one of the hallmarks of AAA development. Therefore, MMP activity can be measured using a zymography technique described in detail in other studies. Briefly, aortic lysates are loaded to gelatin infused SDS-PAGE gels. After electrophoresis, gelatin in the gel is digested by MMP in the loaded samples by incubating the gel in 37° C. overnight. […]

MMP9 = experiment: MMP activity zymography of aortas, MMP9, hph-1 mice
Protocol: as §9, §10

MMP2 [12] = experiment: MMP activity zymography of aortas, MMP2, WT mice
Protocol: as §9, §10

WT mice [13] = experiment: AAA formation in Ang II-infused wild-type mice; conditions: Ang II 0.7 mg/kg per day, 14 days
Protocol: as §1, §2

WT mice [14] = experiment: Ultrasound detection of abdominal aorta size, WT mice; conditions: Ang II infusion, day 0 value 0.53
From the text: as §8

eNOS [15] = experiment: ESR aortic superoxide production with or without L-NAME (eNOS uncoupling), apoE null mice
Protocol: L-NAME sensitive superoxide production, which reflects eNOS uncoupling activity, was also measured.
The functional state of eNOS is assessed in lysed aortic samples by measuring superoxide production in the presence or absence of L-NAME using electron spin resonance (ESR, from Bruker). Under normal conditions where eNOS is coupled, the addition of the eNOS inhibitor L-NAME will increase superoxide production, as eNOS is normally producing NO to scavenge superoxide. However, under eNOS uncoupled conditions where eNOS is producing superoxide, the addition of L-NAME will decrease superoxide production. This direction of change in superoxide production will allow for an accurate assessment of eNOS function in the aortas of the animals.

eNOS [16] = experiment: ESR aortic superoxide production with or without L-NAME (eNOS uncoupling), hph-1 mice; conditions: Ang II-infused hph-1 mice
Protocol: as §4
(§11) The mice were monitored twice per day during the infusion period of 2 weeks, and aortas were harvested for assessment of AAA formation, endothelial DHFR expression, and eNOS uncoupling activity by day 14. Animals that died suddenly during the infusion period of 14 days were inspected for aneurysm immediately and aortas were freshly harvested for experiments.

eNOS [17] = experiment: ESR aortic superoxide production with or without L-NAME (eNOS uncoupling), WT mice; conditions: Ang II-infused WT mice
Protocol: as §4, §11

[18] = Ang II-infused hph-1 mice, FA 15 mg/kg per day

Nc1nc2ncc(CNc3ccc(C(=O)N[C@@H](CCC(=O)O)C(=O)O)cc3)nc2c(=O)[nH]1 [FA, folic acid]
AAA formation (hph-1 mice [1]; Ang II-infused hph-1 mice, 14 days, oral FA 15 mg/kg per day or DHFR vector tail vein transfection every other day): completely prevented and none
AAA total morbidity / incidence rate (hph-1 mice [1]; hph-1 mice): 0%
AAA incidence (apoE null mice; Ang II 1000 ng/kg/min for 4 weeks, FA 15 mg/kg/day in food where given): 16.7% and 17%
number of mice with AAA (apoE null mice): 4
number of mice with No AAA (apoE null mice): 20
effect on Ang II-induced hypertension (WT mice [2]; Ang II-infused WT mice, FA 15 mg/kg per day): highly effective in attenuating
effect on MBP decline (hph-1 mice [3]; [18]): prevented the decline
aortic H4B levels (aortic H4B [4]; [18]): even higher than baseline
aortic levels of H4B (aortic H4B [4]): 3.00 ± 0.64 pmol/mg
aortic H4B levels (aortic H4B [5]): even higher than baseline
aortic H4B levels (aortic H4B [6]): 6.60 ± 0.62 pmol/mg
plasma H4B (plasma H4B [7]): 5.80 ± 0.30 pmol/mg
plasma levels of H4B (plasma H4B [8]): 2.36 ± 0.25 pmol/mg
abdominal aorta cross-sectional area at day 14 (hph-1 mice [9]): 0.52 mm^2
endothelial DHFR expression (endothelial DHFR): restored
medial degradation and adventitial inflammatory cell recruitment, H&E staining (hph-1 mice [10]; Ang II-infused hph-1 mice): abrogated
medial elastin flattening and rarefaction of elastin fibers, VVG staining (hph-1 mice [10]; Ang II-infused hph-1 mice): attenuated
infiltrating macrophages (hph-1 mice [10]): completely attenuated
Ang II-induced MMP2 activation (MMP2 [11]): attenuated
Ang II-induced MMP9 activation (MMP9): attenuated
Ang II-induced MMP2 activation (MMP2 [12]): inhibited

angiotensin II (DRVYIHPF; Angiotensin-2; UniProt P11859 25-32, looked up) [Ang II, angiotensin II infused by osmotic pump to induce AAA and eNOS uncoupling in mice]
AAA total morbidity / incidence rate (hph-1 mice [1]; hph-1 mice): 79%
no-AAA rate (hph-1 mice [1]; hph-1 mice, Ang II 0.7 mg/kg per day, 14 days): 21%
died or developed AAA (WT mice [13]): none
number of mice with AAA (apoE null mice): 24
number of mice with No AAA (apoE null mice): 2
mean blood pressure (MBP) (WT mice [2]; WT mice, day 6 of Ang II infusion (baseline 101±3)): 140±2 mm Hg
mean blood pressure (MBP) (hph-1 mice [3]; hph-1 mice, day 6 of Ang II infusion (baseline 112±3)): 140±2 mm Hg
aortic levels of H4B (aortic H4B [4]): 0.99 ± 0.11 pmol/mg
aortic H4B levels (aortic H4B [6]): 2.72 ± 0.26 pmol/mg
plasma H4B (plasma H4B [7]): 1.87 ± 0.11 pmol/mg
plasma levels of H4B (plasma H4B [8]): 0.92 ± 0.06 pmol/mg
abdominal aorta cross-sectional area at day 14 (hph-1 mice [9]): 1.96 mm^2
abdominal aorta cross-sectional area at day 14 (WT mice [14]): 0.66 mm^2
L-NAME sensitive superoxide production (eNOS uncoupling activity), fold (eNOS [15]; Ang II 4 weeks (baseline 1.17±0.06)): 2.22±0.2 fold
L-NAME-sensitive superoxide production (eNOS [15]; Ang II 4 weeks, FA 15 mg/kg/day where given): markedly increased
aortic superoxide production, fold increase (eNOS [15]; Ang II 4 weeks, n=6 each): 2.67±0.15 fold
eNOS uncoupling / L-NAME-sensitive O2•− production (eNOS [16]): further uncoupled; also recorded: progressive uncoupling
eNOS uncoupling / L-NAME-sensitive O2•− production (eNOS [17]): remained steady
endothelial DHFR expression (endothelial DHFR): further reduced
infiltrating macrophages (hph-1 mice [10]): dramatically upregulated
